Data published in patent US7173040B2, “Farnesyl transferase inhibiting 6-[(substituted phenyl)methyl]-quinoline and quinazoline derinazoline derivatives” (Janssen Pharmaceutica N.V., priority 2000, dated 2007).

Row | melting point | SMILES
1 | 220 °C | Cn1cnnc1C(N)(c1ccc(Cl)cc1)c1ccc2c(c1)c(-c1cccc(Cl)c1)nc1nnnn12 (stereo not drawn) [Example B28e, 5-(3-chlorophenyl)-α-(4-chlorophenyl)-α-(4-methyl-4H-1,2,4-triazol-3-yl)-tetrazolo[1,5-a]quinazoline-7-methanamine]
2 | 273 °C | Cn1cncc1C(O)(c1ccc(CO)cc1)c1ccc2c(c1)c(-c1cccc(Cl)c1)cc(=O)n2C (racemic) [Example B9, (±)-4-(3-chlorophenyl)-6-[hydroxy[4-(hydroxymethyl)phenyl](1-methyl-1H-imidazol-5-yl)methyl]-1-methyl-2(1H)-quinolinone]
3 | 201 °C | Cn1cnnc1C(O)(c1ccc(I)cc1)c1ccc2c(c1)C(c1cccc(Cl)c1)Nc1nnnn1-2 (stereo not drawn) [Example B46, 5-(3-chlorophenyl)-4,5-dihydro-α-(4-iodophenyl)-α-(4-methyl-4H-1,2,4-triazol-3-yl)-tetrazolo[1,5-a]quinazoline-7-methanol]
